Data: patent US20190357538A1, “An Antifungal Composition Comprising Natamycin and C4-C22 Fatty Acids, Monoglycerides of These Fatty Acids and/or Derivatives of These Fatty Acids” (Arec Crop Protection B.V., priority 2015, published 2019)
Counter-ions that a name gives are not always drawn.

Experiments:
[1] = tested on: Fusarium oxysporum f. sp. cubense; assay: in vitro 96-well microtiter plate assay, visible mould development; format: cell-based; conditions: substance alone
Saccharomyces cerevisiae [2] = assay: filter disc inhibition zone on PDA Petri dishes (90 mm, 50 μL), Example 4; format: cell-based; conditions: 3 mM natamycin alone; after 16 h
Description: Saccharomyces cerevisiae (at least 10^5 cfu/mL) was distributed on Petri dishes with a diameter of 90 mm containing 10 ml PDA agar (Carl Roth, pH about 6) using sterilized swabs. Filter paper discs (Whatman) with a diameter of 6 mm were loaded with 50 μL of a solution containing a concentration of 3 mM natamycin plus 0.3 mM of a mixture of oleic acid sodium salt and stearic acid sodium salt in a 50/50 ratio (this mixture will be referred to as fatty acid mix). As controls, the effect of the fatty acid mix alone (without natamycin) was tested on yeast growth. Yeast growth was also determined after incubation on medium without both natamycin and fatty acid salts. The size of the inhibition zone is a result of the natamycin and/or fatty acid salts released from the sample disc. After 16 h of incubation in the stove the size of the inhibition zone was measured using a digital caliper gauge. The data are presented as square mm and are an average of four replicas.

[3] = saturation level of natamycin in water by HPLC; format: physicochemical
Saccharomyces cerevisiae [4] = assay: filter disc inhibition zone on PDA Petri dishes (145 mm), Example 2; format: cell-based; conditions: after 16 h
Description: Saccharomyces cerevisiae (at least 10^5 cfu/ml) was distributed on Petri dishes with a diameter of 145 mm containing 30 ml Potato Dextrose Agar (PDA; Carl Roth; pH of about 6) using sterilized swabs. […] As controls, the effects of the fatty acid salts alone (without natamycin) were tested. Yeast growth was also measured after incubation on medium without natamycin and fatty acid salts. Following the application of a filter, Petri dishes were incubated upside down for 24 h in a refrigerator at 4° C. to allow diffusion of natamycin into the agar. After 24 h the filter discs were removed from the agar and the Petri dishes were incubated upside down in a stove at 30° C. […] After 16 h incubation in the stove the size of the inhibition zone was determined using a digital caliper gauge. The data are presented as square mm and are an average of four replicas.

Saccharomyces cerevisiae [5] = assay: filter disc inhibition zone on Petri dishes (90 mm), Example 3; format: cell-based; conditions: for surface of inhibition zone: 90 mm dish, after 16 h
Description: Saccharomyces cerevisiae (at least 10^5 cfu/ml) was distributed on Petri dishes with a diameter of 145 mm containing 30 ml Potato Dextrose Agar (PDA; Carl Roth; pH of about 6) using sterilized swabs. Filter paper discs (Whatman, Antibiotic Assay Paper, grade AA) with a diameter of 6 mm were loaded with 40 μl of a solution of 3 mM natamycin (Chinonbio, China, 95%) plus 0, 0.03, 0.09, 0.3 or 0.9 mM of sodium salts of butanoic acid (Carl Roth >99%), caprylic acid (Carl Roth, >99.5%), palmitic acid (Sigma, sodium palmitate 98.5) or stearic acid (Carl Roth, sodium stearate 88-92%). As controls, the effects of the fatty acid salts alone (without natamycin) were tested. Yeast growth was also measured after incubation on medium without natamycin and fatty acid salts.
Following the application of a filter, Petri dishes were incubated upside down for 24 h in a refrigerator at 4° C. to allow diffusion of natamycin into the agar. After 24 h the filter discs were removed from the agar and the Petri dishes were incubated upside down in a stove at 30° C. […] After 16 h incubation in the stove the size of the inhibition zone was determined using a digital caliper gauge. The data are presented as square mm and are an average of four replicas.
The experiment was performed as described in example 2, except that the diameter of the petri dishes was 90 mm. Measurement of the inhibition zone was after 16 hours.

[6] = solubility of natamycin in aqueous composition (description); format: physicochemical; conditions: presence of fatty acids, monoglycerides and/or derivatives; pH between 5 and 9
Botrytis cinerea = assay: rot on wounded apples inoculated with Botrytis cinerea; format: in vivo; conditions: 3 mM natamycin; for Lesion area on apple fruits: 0 FA; for Antifungal activity (%): apple fruits
Source text: Tested fruit: apples cv Maribelle from organic origin/SKAL certified. SKAL is a semi-governmental Dutch organization that controls organic production in the Netherlands. Wounds of the apples were checked at day 5 and 7. A mixture of fatty acid sodium salts containing oleic acid sodium salt and stearic acid sodium salt in a 50/50 ratio was used in this experiment and will be referred to as fatty acid mix. Used pathogen: Botrytis cinerea spore-suspension containing 10^6 spores/ml. Application: The fruit peel of the apple was damaged with a cork borer, ø 4 mm and depth ˜0.5 cm into the fruit, with 2 wounds per apple. 40 microliter of a freshly prepared spore suspension of B. cinerea was applied by pipette onto each wound. Subsequently, the spore-suspension was allowed to air-dry for 4 hours. Then, 40 microliter of a treatment as presented in the list above was applied by pipette to each wound. All fruits were kept at room temperature (20° C.). Wounds of the apples were checked after 4 and 7 days of incubation. […] Replicates: All treatments for the apple experiment were performed on six individual apples with two wounds each resulting in 12 wounds per treatment.

[7] = 0.03 mM fatty acid salt without natamycin
[8] = 0.09 mM fatty acid salt without natamycin
[9] = 0.3 mM fatty acid salt without natamycin
[10] = 0.9 mM fatty acid salt without natamycin

Compound: C[C@@H]1C/C=C/C=C/C=C/C=C/[C@H](O[C@@H]2O[C@H](C)[C@@H](O)[C@H](N)[C@@H]2O)C[C@@H]2O[C@](O)(C[C@@H](O)C[C@H]3O[C@@H]3/C=C/C(=O)O1)C[C@H](O)[C@H]2C(=O)O [Natamycin, natamycin]
- sensitivity of Fusarium oxysporum [1]: > 7 µM
- Inhibition zone (Saccharomyces cerevisiae [2]): 480 square mm
- Dissolved natamycin in water ([3]; ratio natamycin:salts of oleic and stearic acid mix 1:0 (g:g), room temperature): 46 mg/L
- level dissolved in water ([3]; without addition of fatty acids): about 46 ppm
- surface of inhibition zone (Saccharomyces cerevisiae [4]; 3 mM natamycin, 0 mM fatty acid salt, 40 μl per disc): 585 square mm
- surface of inhibition zone (Saccharomyces cerevisiae [5]; 3 mM natamycin, 0 mM caprylic acid salt): 788 square mm
- solubility of natamycin [6]: increased
- Lesion area on apple fruits (Botrytis cinerea; 5 days after inoculation): 130 mm^2
- Lesion area on apple fruits (Botrytis cinerea; 7 days after inoculation): 308 mm^2
- Antifungal activity (%) (Botrytis cinerea; incubation 5 days): 62%
- Antifungal activity (%) (Botrytis cinerea; incubation 7 days): 50%

Compound: CCCC(=O)O [butanoic acid-Na, butanoic acid]
- surface of inhibition zone (Saccharomyces cerevisiae [4]; [7]): 0 square mm
- surface of inhibition zone (Saccharomyces cerevisiae [4]; [8]): 0 square mm
- surface of inhibition zone (Saccharomyces cerevisiae [4]; [9]): 0 square mm
- surface of inhibition zone (Saccharomyces cerevisiae [4]; [10]): 0 square mm

Compound: CCCCCCCC(=O)O [caprylic acid ammonium salt, caprylic acid]
- effect on natamycin-inhibited yeast growth (Saccharomyces cerevisiae [5]; caprylic acid salt 0.09, 0.3 and 0.9 mM with natamycin): enhanced
- inhibition of growth of yeast by the salts themselves (Saccharomyces cerevisiae [5]; without natamycin): did not inhibit

Compound: CCCCCCCC(=O)O [caprylic acid potassium salt, caprylic acid]
- surface of inhibition zone (Saccharomyces cerevisiae [5]; 0.03 mM caprylic acid salt without natamycin): 0 square mm
- surface of inhibition zone (Saccharomyces cerevisiae [5]; 0.09 mM caprylic acid salt without natamycin): 0 square mm
- surface of inhibition zone (Saccharomyces cerevisiae [5]; 0.3 mM caprylic acid salt without natamycin): 0 square mm
- surface of inhibition zone (Saccharomyces cerevisiae [5]; 0.9 mM caprylic acid salt without natamycin): 0 square mm

Compound: CCCCCCCC(=O)O [caprylic acid-Na, caprylic acid]
- surface of inhibition zone (Saccharomyces cerevisiae [4]; [7]): 0 square mm
- surface of inhibition zone (Saccharomyces cerevisiae [4]; [8]): 0 square mm
- surface of inhibition zone (Saccharomyces cerevisiae [4]; [9]): 0 square mm
- surface of inhibition zone (Saccharomyces cerevisiae [4]; [10]): 0 square mm

Compound: CCCCCCCCCCCCCCCC(=O)[O-].[Na+] [palmitic acid-Na, sodium palmitate]
- surface of inhibition zone (Saccharomyces cerevisiae [4]; [7]): 0 square mm
- surface of inhibition zone (Saccharomyces cerevisiae [4]; [8]): 0 square mm
- surface of inhibition zone (Saccharomyces cerevisiae [4]; [9]): 0 square mm
- surface of inhibition zone (Saccharomyces cerevisiae [4]; [10]): 0 square mm

Compound: CCCCCCCCCCCCCCCCCC(=O)[O-].[Na+] [stearic acid-Na, sodium stearate]
- surface of inhibition zone (Saccharomyces cerevisiae [4]; [7]): 0 square mm
- surface of inhibition zone (Saccharomyces cerevisiae [4]; [8]): 0 square mm
- surface of inhibition zone (Saccharomyces cerevisiae [4]; [9]): 0 square mm
- surface of inhibition zone (Saccharomyces cerevisiae [4]; [10]): 0 square mm
